Source: patent US20150374718A1, “Zhankuic Acid A and Analogs thereof and Their Use as an Anti-Inflammatory Agent” (National Cheng Kung University, priority 2014, published 2015)
“Also recorded” adds a separate entry of the source.

Columns and labels:
[1] = tested on: LPS-induced TNF-α and IL-6 production; assay: Plasma cytokines in LPS-injected mice; format: in vivo; settings: ZAA i.p. 30 min before LPS 4 mg/kg i.p., 6 h
LPS-induced lethality = assay: LPS-induced sepsis model (lethality); format: in vivo; settings: C3H/HeN mice; ZAA 2 or 10 mg/kg i.p., LPS 20 mg/kg i.p.
Procedure: The mice were monitored every 2-4 h until all C3H/HeN mice in the ZAA-untreated and LPS-treated group expired.

human neutrophils = settings: reference (9), cited from earlier work
recombinant human MD-2 = molecular target: T1, recombinant human MD-2 (Homo sapiens, UniProt Q9Y6Y9); assay: Native PAGE binding analysis with anti-MD-2 antibodies; settings: MD-2 0.15 μg, 3 h at 37° C.
T1 construct: purchased R&D
T1 sequence (Q9Y6Y9 19-160): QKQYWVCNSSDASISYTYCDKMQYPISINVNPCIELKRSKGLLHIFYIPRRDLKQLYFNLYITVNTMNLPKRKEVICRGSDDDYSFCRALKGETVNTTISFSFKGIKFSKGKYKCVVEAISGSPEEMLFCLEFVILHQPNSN
Description: FIG. 2. ZAA interacts with the hydrophobic binding pocket of MD-2. […] The amino acids G1y110-Asn158 shown in magenta, which reside within the immunogenic peptide fragment of MD-2 amino acids 110-160, are around the ZAA-binding site in the ribbon model of MD-2. Gly110 and Asn158 are indicated by arrows. (B) Interactions involved in the binding of ZAA to the hydrophobic amino acid residues within the MD-2 binding pocket are shown. […] Similar results were obtained in three independent experiments.
Samples were subjected to native PAGE, and the levels of TLR4-associated or free MD-2 were detected by immunoblotting with two anti-MD-2 antibodies, rabbit polyclonal antibody against MD-2 amino acids 110-160 (abcam, Cambridge, Mass.) and mouse monoclonal antibody against MD-2 amino acids 2-160 (abcam). Signals were detected via ECL.

S. choleraesuis = S. choleraesuis growth in LB broth (absorbance at 600 nm); settings: 24 or 48 h, various concentrations, listed as ZAA
Procedure: S. choleraesuis was cultured in LB broth for 24 or 48 h in the presence of various concentrations of ZAA or ampicillin that served as a positive control. Bacterial growth was assessed by measurement of the absorbance at 600 nm and is expressed as means±SD of at least three independent experiments.

[2] = tested on: LPS-induced lung and renal injury; assay: LPS-induced lung and renal injury in mice; settings: ZAA 20 mg/kg i.p., LPS 4 mg/kg i.p., 10 h
Procedure: After 10 h, mice were sacrificed, and their lung and kidney tissues were removed. […] (B) The number of infiltrated PMNs in each alveolus was observed by light microscopy (original magnification ×200). The number of PMNs was counted in four randomly chosen fields per slide for each mouse and normalized to the number of alveoli. […] Values shown in B-D are means ±SD (n=10; **p<0.01 and ***p<0.001).
The lung and kidney were embedded in paraffin, sectioned, and stained with hematoxylin and eosin. Serum samples were collected for determination of blood urea nitrogen (BUN) and serum creatinine levels.

NO production = assay: Griess assay of nitrite (NO) in macrophage culture medium; format: cell-based, murine; settings: ZAA 1 h, dose-dependent
Procedure: (§1) FIG. 1. ZAA inhibits the production of inflammation-related molecules in LPS- and IFN-γ-stimulated murine macrophages. […] Total cell lysates were subjected to immunoblotting for detecting COX2 and iNOS. Relative expression levels of COX2 and iNOS protein were quantified by densitometric analysis with ImageJ software and normalized according to the β-actin reference band. […] The presence of nitrite in the culture medium was analyzed by the Griess assay and used as an indication of NO levels (n=4; *p<0.05 and ***p<0.001 vs. LPS- or IFN-γ-induced cells). (C) Raw264.7 cells were cotransfected with pNFKB-Luc and pβ-actin-LacZ plasmids. […] Total cell lysates were harvested, and their luciferase activities were determined and normalized on the basis of β-galactosidase activities. Values are means±SD (n=4; *p<0.05 and **p<0.01 vs. LPS-stimulated cells). […] Numbers below the blots in D and those shown in the table below the blots in E represent the relative expression levels quantified by densitometric analysis with ImageJ software and normalized according to the β-actin reference bands. […]
(§2) C57BL/6 mice were injected intraperitoneally with 3% thioglycollate, and their peritoneal macrophages were collected 72 h later. […] The presence of nitrite (a metabolite of NO) in the culture medium was analyzed by the Griess assay (Sigma-Aldrich), as previously described (16).

[3] = tested on: NF-κB-mediated transactivation in Raw264.7 cells; assay: NF-κB luciferase reporter assay; format: cell-based, murine; settings: ZAA 1 h, then LPS 24 h
Procedure: as §1, with “activities.” for “activities. Values are means±SD (n=4; *p<0.05 and **p<0.01 vs. LPS-stimulated cells).”
Subconfluent Raw264.7 cells cultured in 24-well plates were cotransfected with p-NFκB-Luc and pβ-actin-LacZ plasmids using the Neon Transfection System (Invitrogen, Carlsbad, Calif.) according to the manufacturer's protocol. […] Relative luciferase activity was measured as luciferase activity divided by β-galactosidase activity to normalize transfection efficiency.

[4] = tested on: LPS-induced NO production; settings: reference (10); cited from earlier work
[5] = tested on: S. choleraesuis-induced TNF-α and IL-6 production; assay: Plasma cytokines in S. choleraesuis-infected mice; format: in vivo; settings: C57BL/6 mice; ZAA 10 mg/kg, oral S. choleraesuis 2×10^9 CFU/mouse; 6 h
COX2 and iNOS = assay: Immunoblot of COX2 and iNOS in LPS-stimulated peritoneal macrophages; format: cell-based, murine; settings: ZAA 1 h, then LPS 0.5 μg/mL 24 h; dose-dependent
Procedure: as §1, §2

[6] = tested on: murine peritoneal macrophages; assay: Cell viability by MTS and SRB assays; format: cell-based; settings: up to 30 μM for 72 h; resident or LPS-activated macrophages; listed as ZAA
Procedure: FIG. 6. ZAA is not cytotoxic to murine peritoneal macrophages. (A) Cells were incubated with various concentrations of ZAA for 72 h. Cell viability was determined by colorimetric tetrazolium (MTS) and sulphorhodamine B (SRB) assays. The absorbance was measured at 490 and 590 nm for MTS and SRB assays, respectively. […] Cell viability was determined by the SRB assay.
We first investigated the anti-inflammatory properties of ZAA purified from T. camphoratus. During inflammation, large amounts of pro-inflammatory mediators, NO, and prostaglandin E2 (PGE2) are generated by iNOS and COX2.

[7] = TLR4 signaling-defective C3H/HeJ mice

## C=C(CC[C@@H](C)[C@H]1CC[C@H]2C3=C(C(=O)C[C@]12C)[C@@]1(C)CCC(=O)[C@@H](C)[C@@H]1CC3=O)C(C)C(=O)O (some centres unmarked) [No. 1, Zhankuic acid A]
[1]; C3H/HeN mice
  plasma IL-6 production: significantly reduced
  plasma TNF-α production: significantly reduced
[1]; [7]
  plasma IL-6 production: a much weaker response
  plasma TNF-α production: a much weaker response
LPS-induced lethality
  protection against LPS-induced lethality (survival): significantly protected
Human neutrophils; fMLP- or PMA-activated peripheral human neutrophils
  ROS production: inhibits
Human neutrophils; human neutrophils
  cytotoxicity: without exerting significant cytotoxicity
Human neutrophils
  inflammatory responses by human neutrophils: prevent inflammatory responses
Recombinant human MD-2
  recognition of anti-MD-2 antibodies (aa 110-160 and 2-160) to native MD-2: reduced the recognition of both antibodies to native MD-2
S. choleraesuis
  direct effect on growth / replication of Salmonella: cannot inhibit; also recorded: no direct inhibitory effects
[2]; C3H/HeN mice
  LPS-induced pulmonary accumulation of PMNs: significantly prevented
  extent of LPS-induced glomerulonephritis: significantly reduced
[2]
  BUN level: markedly reduced
  serum creatinine level: markedly reduced
NO production; then IFN-γ 50 ng/mL 24 h
  IFN-γ-induced NO production: inhibited
NO production; then LPS 0.5 μg/mL 24 h
  LPS-induced NO production: inhibited
[3]
  NF-κB-mediated transactivation (relative luciferase activity): inhibited
[4]
  LPS-induced NO production: inhibiting
[5]
  S. choleraesuis-induced IL-6 production: effectively suppressed
  S. choleraesuis-induced TNF-α production: effectively suppressed
COX2 and iNOS
  level of COX2 induced by LPS: downregulated
  level of iNOS induced by LPS: downregulated
[6]
  cytotoxic effects (MTS and SRB): did not exert any cytotoxic effects
